Source: patent publication US10640495B2, “Heterocycle derivatives having TrkA inhibitory activity” (Shionogi & Co., Ltd., priority 2015, dated 2020)
Read-outs that look alike come from different tables or passages of the source.

Molecular target: human TrkA (Homo sapiens (Human), UniProt P04629)
Experiment: Human TrkA inhibition assay (Test Example 2)
Format: biochemical
Procedure, shortened: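 Recombinant TrkA (1 nmol/L) was preincubated 15 min at room temperature with compound in HEPES/MgCl2/DTT buffer, then reacted with FL-peptide 27 (1.5 μmol/L) and ATP (500 μmol/L) for 120 min at 37 °C. After EDTA stop, substrate phosphorylation was read by microfluidic mobility shift. IC50 came from logistic regression over 3-fold dilution series.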

[1] = Table 152, human TrkA inhibition, read-out: IC50_nM
[2] = Table 153, human TrkA inhibition, read-out: IC50
[3] = Table 157, human TrkA inhibition, read-out: IC50
[4] = human TrkA 1 nmol/L, ATP 500 μmol/L, 120 min at 37° C., read-out: IC50 values (TrkA phosphorylation inhibition)
[5] = Table 154, human TrkA inhibition, read-out: IC50
[6] = Table 156, human TrkA inhibition, read-out: IC50
[7] = Table 155, human TrkA inhibition, read-out: IC50

human TrkA, sequence (P04629 440-796): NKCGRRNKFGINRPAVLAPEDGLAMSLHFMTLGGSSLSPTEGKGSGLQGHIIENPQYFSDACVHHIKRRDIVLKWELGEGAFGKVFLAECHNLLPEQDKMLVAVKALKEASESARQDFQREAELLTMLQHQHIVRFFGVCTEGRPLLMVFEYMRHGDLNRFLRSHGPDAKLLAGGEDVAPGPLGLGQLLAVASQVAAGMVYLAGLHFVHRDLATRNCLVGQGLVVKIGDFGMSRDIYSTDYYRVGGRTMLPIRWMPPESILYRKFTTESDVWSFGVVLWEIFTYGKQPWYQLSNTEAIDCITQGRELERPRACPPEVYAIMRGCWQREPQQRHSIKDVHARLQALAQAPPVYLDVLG

## COCCN1C[C@H](NC(=O)Nc2c(C)c(C3=CCN(C(C)=O)CC3)nn2-c2ccccc2)[C@@H](c2ccc(F)c(F)c2)O1 [Compound I-38]
[1]
  IC50: > 1000 nM

## COCCN1C[C@@H](NC(=O)Nc2c(C)c(-c3cccc(C(=O)OC(C)(C)C)c3)nn2-c2ccccc2)[C@H](c2ccc(F)c(F)c2)O1 (racemic) [Compound I-50]
[2]
  IC50: < 100 nM

## COCCN1C[C@@H](NC(=O)Nc2c(C)c(-c3cnc(N(C)C)nc3)nn2-c2ccccc2)[C@H](c2ccnc(F)c2)O1 (racemic) [Compound I-132]
[2]
  IC50: < 100 nM

## COCCN1C[C@@H](NC(=O)Nc2c(C)c(CCN(C)C)nn2-c2ccccc2)[C@H](c2ccc(F)c(F)c2)O1 [Compound I-641]
[3]
  IC50: < 100 nM

## CCN1C[C@@H](NC(=O)Nc2c(C)c(OCC3CNC(=O)O3)nn2-c2ccccc2)[C@H](c2ccc(F)c(F)c2)O1 (stereo partly shown) [Compound I-675]
[3]
  IC50: < 100 nM

## COCCN1C[C@@H](NC(=O)Nc2c(C)c(-c3cnc4c(cnn4C4CCN(C)CC4)c3)nn2-c2ccccc2)[C@H](c2ccnc(F)c2)O1 (racemic) [Compound I-413]
[4]
  IC50: 2.5 nM

## COCCN1C[C@@H](NC(=O)Nc2c(C)c(-c3ccc(C(=O)O)nc3)nn2-c2ccccc2)[C@H](c2ccc(F)c(F)c2)O1 (racemic) [Compound I-214]
[5]
  IC50: < 100 nM

## COCCN1C[C@@H](NC(=O)Nc2c(C)c(-c3ccc(N=S(C)(C)=O)nc3)nn2-c2ccccc2)[C@H](c2ccc(F)c(F)c2)O1 (racemic) [Compound I-66]
[4]
  IC50: 1.6 nM

## COCCN1C[C@@H](NC(=O)Nc2c(C)c(C)nn2-c2ccccc2)[C@H](c2ccc(F)c(F)c2)O1 [Compound I-518]
[6]
  IC50: < 100 nM

## CNC(=O)c1cc(-c2nn(-c3ccccc3)c(NC(=O)N[C@@H]3CN(C)O[C@H]3c3ccc(F)c(F)c3)c2C)cn(C)c1=O (racemic) [Compound I-193]
[4]
  IC50: 4 nM

## COCCN1C[C@@H](NC(=O)Nc2c(C)c(-c3cnc(C)nc3)nn2-c2ccccc2)[C@H](c2cnc(F)c(F)c2)O1 [Compound I-358]
[7]
  IC50: < 100 nM

## Cc1c(OCC2CCN(C)CC2)nn(-c2ccccc2)c1NC(=O)N[C@@H]1CN(CC2CC2)O[C@H]1c1ccc(F)c(F)c1 (racemic) [Compound I-653]
[3]
  IC50: < 100 nM

## COCCN1C[C@@H](NC(=O)Nc2c(C)c(-c3cnc(NC4CC4)nc3)nn2-c2ccccc2)[C@H](c2ccnc(F)c2)O1 (racemic) [Compound I-131]
[2]
  IC50: < 100 nM

## COCCN1C[C@@H](NC(=O)Nc2c(C)c(-c3cnc(N4CCN(C)[C@H](C)C4)nc3)nn2-c2ccccc2)[C@H](c2ccnc(F)c2)O1 [Compound I-592]
[3]
  IC50: < 100 nM

## CNS(=O)(=O)c1cc(-c2nn(-c3ccccc3)c(NC(=O)N[C@@H]3CN(CCOC)O[C@H]3c3ccc(F)c(F)c3)c2C)cn(C)c1=O (racemic) [Compound I-177]
[5]
  IC50: < 100 nM

## CCN1C[C@@H](NC(=O)Nc2c(C)c(OCCCC(=O)NCC(C)(C)O)nn2-c2ccccc2)[C@H](c2ccc(F)c(F)c2)O1 (racemic) [Compound I-669]
[3]
  IC50: < 100 nM

## COCCN1C[C@@H](NC(=O)Nc2c(C)c(-c3cnc(N=S(C)(C)=O)nc3)nn2-c2ccccc2)[C@H](c2ccc(F)c(F)c2)O1 [Compound I-268]
[4]
  IC50: 0.55 nM

## COCCC1C[C@@H](NC(=O)Nc2c(C)c(-c3cnn(C)c3)nn2-c2ccccc2)[C@H](c2ccccc2)O1 (stereo partly shown) [Compound I-16]
[1]
  IC50: < 100 nM

## COCCN1C[C@@H](NC(=O)Nc2c(C)c(-c3ccnc(C)c3)nn2-c2ccccc2)[C@H](c2ccnc(F)c2)O1 (racemic) [Compound I-529]
[6]
  IC50: < 100 nM

## COCCN1C[C@@H](NC(=O)Nc2c(C)c(N3Cc4cnn(C)c4C3)nn2-c2ccccc2)[C@H](c2ccnc(F)c2)O1 (racemic) [Compound I-244]
[4]
  IC50: 17 nM

## COCC[C@@H]1C[C@@H](NC(=O)Nc2c(C)c(-c3cnc(Cl)nc3)nn2-c2ccccc2)[C@H](c2ccnc(F)c2)O1 [Compound I-248]
[5]
  IC50: < 100 nM

## COCCN1C[C@@H](NC(=O)Nc2c(C)c(C3=CCNCC3)nn2-c2ccccc2)[C@H](c2ccc(F)c(F)c2)O1 (racemic) [Compound I-30]
[1]
  IC50: < 100 nM

## COCCN1C[C@@H](NC(=O)Nc2c(C)c(-c3cnc4c(c3)c(CO[Si](C)(C)C(C)(C)C)nn4C)nn2-c2ccccc2)[C@H](c2ccnc(F)c2)O1 (racemic) [Compound I-424]
[7]
  IC50: < 100 nM

## COCCN1C[C@@H](NC(=O)Nc2c(C)c(-c3cnc(OC)nc3)nn2-c2ccccc2)[C@H](c2ccnc(F)c2)O1 (racemic) [Compound I-119]
[4]
  IC50: 4 nM

## CCN1C[C@@H](NC(=O)Nc2c(C)c(OCCCC(=O)NCCN(C)C)nn2-c2ccccc2)[C@H](c2ccc(F)c(F)c2)O1 (racemic) [Compound I-667]
[3]
  IC50: < 100 nM

## COCCN1C[C@@H](NC(=O)Nc2c(C)c(-c3ccc(C)nc3)nn2-c2ccccc2)[C@H](c2ccnc(F)c2)O1 (racemic) [Compound I-327]
[7]
  IC50: < 100 nM

## COCC[C@@H]1C[C@@H](NC(=O)Nc2c(C)c(-c3cc(C)c(=O)n(C)c3)nn2-c2ccccc2)[C@H](c2ccnc(F)c2)O1 [Compound I-288]
[5]
  IC50: < 100 nM

## COCCNC(=O)c1ncc(-c2nn(-c3ccccc3)c(NC(=O)N[C@@H]3CN(CCOC)O[C@H]3c3ccnc(F)c3)c2C)cc1C (racemic) [Compound I-173]
[2]
  IC50: < 100 nM

## COCCN1C[C@@H](NC(=O)Nc2c(C)c(-c3ccc(C(=O)O)cc3)nn2-c2ccccc2)[C@H](c2ccc(F)c(F)c2)O1 (racemic) [Compound I-35]
[1]
  IC50: < 100 nM

## CCN1C[C@@H](NC(=O)Nc2c(C)c(CCN(C)C)nn2-c2ccccc2)[C@H](c2ccc(F)c(F)c2)O1 (racemic) [Compound I-642]
[3]
  IC50: 100 to 1000 nM

## COCCN1C[C@@H](NC(=O)Nc2c(C)c(-c3ccc(=O)n(C)c3)nn2-c2ccccc2)[C@H](c2ccc(F)c(F)c2)O1 [Compound I-498]
[7]
  IC50: < 100 nM

## CNC(=O)c1cc(-c2nn(-c3ccccc3)c(NC(=O)N[C@@H]3CN(CCOC)O[C@H]3c3cnc(F)c(F)c3)c2C)cn(C)c1=O (racemic) [Compound I-75]
[2]
  IC50: < 100 nM

## COCCN1C[C@@H](NC(=O)Nc2c(C)c(OCC3CN(C(C)=O)CCO3)nn2-c2ccccc2)[C@H](c2ccnc(F)c2)O1 (stereo partly shown) [Compound I-504]
[7]
  IC50: < 100 nM

## COCCN1C[C@@H](NC(=O)Nc2c(C)c(-c3cnc(OC)nc3)nn2-c2ccccc2)[C@H](c2ccnc(F)c2)O1 [Compound I-322]
[4]
  IC50: 2.4 nM

## COCC[C@@H]1C[C@@H](NC(=O)Nc2c(C)c(-c3cnc4c(cnn4C)c3)nn2-c2ccccc2)[C@H](c2ccnc(F)c2)O1 (racemic) [Compound I-97]
[2]
  IC50: < 100 nM

## COc1ncc(-c2nn(-c3ccccc3)c(NC(=O)N[C@@H]3CN(C)O[C@H]3c3ccc(F)c(F)c3)c2C)cn1 (racemic) [Compound I-468]
[7]
  IC50: < 100 nM

## COCCN1C[C@@H](NC(=O)Nc2c(C)c(Oc3ccnc(C(F)(F)F)c3)nn2-c2ccccc2)[C@H](c2ccnc(F)c2)O1 (racemic) [Compound I-441]
[7]
  IC50: 100 to 1000 nM

## COCCN1C[C@@H](NC(=O)Nc2c(C)c(-n3cnc(C)c3)nn2-c2ccccc2)[C@H](c2cnc(F)c(F)c2)O1 (racemic) [Compound I-297]
[5]
  IC50: < 100 nM

## COCCN1C[C@@H](NC(=O)Nc2c(C)c(-c3cnc(OC)c(C(=O)O)c3)nn2-c2ccccc2)[C@H](c2cnc(F)c(F)c2)O1 (racemic) [Compound I-179]
[5]
  IC50: < 100 nM

## COCCN1C[C@@H](NC(=O)Nc2c(C)c(-c3cnc(N4CCC5(CC4)COC5)nc3)nn2-c2ccccc2)[C@H](c2ccnc(F)c2)O1 (racemic) [Compound I-484]
[7]
  IC50: < 100 nM
